Source: patent publication EP0068408A1 (priority 1981, dated 1983)
≈ marks a conversion by molar mass, not a printed value. Read-outs that look alike come from different tables or passages of the source.

Tests used:
[1] = test system: Influenza A0; assay: microbe, parasite or virus in culture; assay type: cell-based; settings: virus A = Influenza A0, MDCK, Vero and HEL cells, 2 or 3 days
[2] = test system: Influenza A1; assay: microbe, parasite or virus in culture; assay type: cell-based
[3] = test system: Influenza B; assay: microbe, parasite or virus in culture; assay type: cell-based
[4] = test system: Parainfluenza Type 3; assay: microbe, parasite or virus in culture; assay type: cell-based; settings: virus E = Parainfluenza Type 3
[5] = test system: ECHO; assay: microbe, parasite or virus in culture; assay type: cell-based
[6] = test system: Coxsackie Type B5; assay: microbe, parasite or virus in culture; assay type: cell-based; settings: virus G = Coxsackie Type B5
[7] = test system: Rhino; assay: microbe, parasite or virus in culture; assay type: cell-based
[8] = test system: influenza A0 virus; assay: animal or person; assay type: in vivo, mice; settings: Mus musculus, 360 h, twice a day for 14 days, survivors at 15th day, read-out: Survival rate; for responders at 300 mg/kg: oral; for responders at 100 mg/kg: ip, intraperitoneal
[9] = Acute toxicity in mice (LD50); assay type: in vivo; settings: ddY male mice, suspended in 5% Arabic gum solution, observed for 7 days; for LD50 at 168 h: mouse, in vivo
Protocol: Experimental Example 7: Acute Toxicity in Mice
Each compound of the invention was suspended in 5% Arabic gum solution and given orally (p.o.) or intraperitoneally (i.p.) to groups of ten ddY male mice weighed from 24 to 26 g at the dosage volume of 10 ml/kg. […] LD50 was determined according to the method of Wilcoxon and Litchfield.

[10] = test system: influenza virus B/GL; assay: animal or person; assay type: in vivo, mice; settings: for responders at 100 mg/kg / responders at 300 mg/kg / responders at 30 mg/kg: unidentified influenza virus, in Mus musculus, po, 360 h, read-out: Survival rate; for survival rates of the treated groups as compared with the control: result in words, Table 7
[11] = test system: coxsackie virus B1; design: species or system mice; settings: mouse, in vivo, po
[12] = test system: parainfluenza virus type 3; design: species or system mice; settings: mouse, in vivo, po
[13] = test system: influenza virus A/WSN; assay: animal or person; assay type: in vivo, mice; settings: in Mus musculus, 360 h, read-out: Survival rate
[14] = ip, i.p., read-out: LD50 value, Intraperitoneal administration
[15] = po, p.o., read-out: LD50 value, Oral administration

Row | SMILES | MIC [1] | MIC [2] | MIC [3] | MIC [4] | MIC [5] | MIC [6] | MIC [7] | responders at 300 mg/kg [8] | responders at 100 mg/kg [8] | LD50 at 168 h [9, 14] | LD50 at 168 h [9, 15] | responders at 100 mg/kg [10] | responders at 300 mg/kg [10] | responders at 100 mg/kg ([13]; po) | other results
1 | N=C(N)NNS(=O)(=O)c1cc(C(=O)O)c(Cl)cc1Cl [Compound 22] | 100 µg/mL (≈ 306 µM) | 300 µg/mL (≈ 917 µM) | 300 µg/mL (≈ 917 µM) | 300 µg/mL (≈ 917 µM) | 100 µg/mL (≈ 306 µM) | 300 µg/mL (≈ 917 µM) | 300 µg/mL (≈ 917 µM) | 40% | 40% | > 1000 mg/kg | > 3000 mg/kg |  |  |  | 
2 | NC(=O)NNS(=O)(=O)c1cc(C(=O)O)c(Cl)cc1Cl [Compound 23] | 100 µg/mL (≈ 305 µM) | 300 µg/mL (≈ 914 µM) | 300 µg/mL (≈ 914 µM) | 100 µg/mL (≈ 305 µM) | 300 µg/mL (≈ 914 µM) | 300 µg/mL (≈ 914 µM) | 300 µg/mL (≈ 914 µM) | 40% | 40% | > 1000 mg/kg | > 3000 mg/kg |  |  |  | 
3 | NC(=O)C(=O)NNS(=O)(=O)c1cc(C(=O)O)c(Cl)cc1Cl [Compound 24] | 100 µg/mL (≈ 281 µM) | 300 µg/mL (≈ 842 µM) | 300 µg/mL (≈ 842 µM) | 300 µg/mL (≈ 842 µM) | 300 µg/mL (≈ 842 µM) | 300 µg/mL (≈ 842 µM) | 100 µg/mL (≈ 281 µM) | 50% | 40% | > 1000 mg/kg | > 3000 mg/kg |  |  |  | 
4 | NS(=O)(=O)c1cc(Cl)cc(C(=O)O)c1 [Compound 25] | 30 µg/mL (≈ 127 µM) | 300 µg/mL (≈ 1270 µM) | 100 µg/mL (≈ 424 µM) | 300 µg/mL (≈ 1270 µM) | 300 µg/mL (≈ 1270 µM) | 300 µg/mL (≈ 1270 µM) | 300 µg/mL (≈ 1270 µM) | 50% | 40% | > 1000 mg/kg | > 3000 mg/kg |  |  |  | 
5 | NS(=O)(=O)c1cc(Br)cc(C(=O)O)c1 [Compound 26] | 30 µg/mL (≈ 107 µM) | 300 µg/mL (≈ 1070 µM) | 300 µg/mL (≈ 1070 µM) | 300 µg/mL (≈ 1070 µM) | 100 µg/mL (≈ 357 µM) | 300 µg/mL (≈ 1070 µM) | 300 µg/mL (≈ 1070 µM) | 50% | 40% | > 1000 mg/kg | > 3000 mg/kg |  |  |  | 
6 | NS(=O)(=O)c1ccc(Cl)cc1C(=O)O [Compound 27] | 30 µg/mL (≈ 127 µM) | 300 µg/mL (≈ 1270 µM) | 100 µg/mL (≈ 424 µM) | 300 µg/mL (≈ 1270 µM) | 300 µg/mL (≈ 1270 µM) | 300 µg/mL (≈ 1270 µM) | 100 µg/mL (≈ 424 µM) | 40% | 40% | > 1000 mg/kg | > 3000 mg/kg |  |  |  | 
7 | CC(C)OC(=O)c1ccc(Br)c(S(N)(=O)=O)c1 [Compound 29] |  |  |  |  |  |  |  |  |  |  |  | 30% | 40% |  | LD50 value, Intraperitoneal administration ([9]; i.p.): >1,000 mg/kg; LD50 value, Oral administration ([9]; p.o.): >3,000 mg/kg
8 | CCCCOC(=O)c1ccc(Br)c(S(N)(=O)=O)c1 [Compound 30] |  |  |  |  |  |  |  |  |  |  |  |  | 70% |  | survival rates of the treated groups as compared with the control [10]: extremely excellent activity; responders at 30 mg/kg [10]: 60%; Survival rate ([11]; 300 mg/kg): 40%; Survival rate ([11]; 1000 mg/kg): 70%; Survival rate ([12]; 30 mg/kg): 40%; Survival rate ([12]; 100 mg/kg): 60%; LD50 value, Intraperitoneal administration ([9]; i.p.): >1,000 mg/kg; LD50 value, Oral administration ([9]; p.o.): >3,000 mg/kg
9 | COC(=O)c1cc(S(N)(=O)=O)c(Cl)cc1Cl [Compound 31] |  |  |  |  |  |  |  |  |  | > 1000 mg/kg | > 3000 mg/kg | 40% | 50% | 40% | responders at 300 mg/kg ([13]; po): 50%
10 | CCCOC(=O)c1cc(S(N)(=O)=O)c(Cl)cc1Cl [Compound 33] |  |  |  |  |  |  |  |  |  | > 1000 mg/kg | > 3000 mg/kg | 40% | 50% | 50% | responders at 30 mg/kg ([13]; ip): 40%; responders at 100 mg/kg ([13]; ip): 50%; responders at 300 mg/kg ([13]; po): 60%
11 | CCCCOC(=O)c1cc(S(N)(=O)=O)c(Cl)cc1Cl [Compound 35] |  |  |  |  |  |  |  |  |  | > 1000 mg/kg | > 3000 mg/kg | 60% |  | 60% | responders at 30 mg/kg ([13]; po): 40%; survival rates of the treated groups as compared with the control [10]: extremely excellent activity; responders at 30 mg/kg [10]: 40%; Survival rate ([11]; 300 mg/kg): 40%; Survival rate ([11]; 1000 mg/kg): 80%; Survival rate ([12]; 30 mg/kg): 30%; Survival rate ([12]; 100 mg/kg): 60%
12 | CCCCCCCCOC(=O)c1cc(S(N)(=O)=O)c(Cl)cc1Cl [Compound 37] |  |  |  |  |  |  |  |  |  | > 1000 mg/kg | > 3000 mg/kg | 80% |  | 70% | responders at 10 mg/kg [13]: 50%; responders at 30 mg/kg ([13]; ip): 60%; responders at 30 mg/kg ([13]; po): 50%; survival rates of the treated groups as compared with the control [10]: extremely excellent activity; responders at 30 mg/kg [10]: 50%; Survival rate ([11]; 300 mg/kg): 50%; Survival rate ([11]; 1000 mg/kg): 80%; Survival rate ([12]; 30 mg/kg): 40%; Survival rate ([12]; 100 mg/kg): 70%
13 | COC(=O)c1cc(S(N)(=O)=O)c(Cl)cc1F [Compound 41] |  |  |  |  |  |  |  |  |  | > 1000 mg/kg | > 3000 mg/kg | 30% | 50% |  | responders at 30 mg/kg ([13]; ip): 30%; responders at 100 mg/kg ([13]; ip): 50%
